Data as given in article PMC6277434, “Discovery of a potent HMG-CoA reductase degrader that eliminates statin-induced reductase accumulation and lowers cholesterol” (Nature Communications, 2018).

Tests used:
[1] = molecular target: T1, HMGCR (TM1-8)-GFP (Cricetulus griseus, UniProt P00347); assay: HMGCR (TM1-8)-GFP fluorescent assay (high-content imaging) in CHG cells; conditions: read-out: Mean (HMGCR (TM1-8)-GFP signal relative to 0 μM = 100)
T1 sequence (P00347 1-346): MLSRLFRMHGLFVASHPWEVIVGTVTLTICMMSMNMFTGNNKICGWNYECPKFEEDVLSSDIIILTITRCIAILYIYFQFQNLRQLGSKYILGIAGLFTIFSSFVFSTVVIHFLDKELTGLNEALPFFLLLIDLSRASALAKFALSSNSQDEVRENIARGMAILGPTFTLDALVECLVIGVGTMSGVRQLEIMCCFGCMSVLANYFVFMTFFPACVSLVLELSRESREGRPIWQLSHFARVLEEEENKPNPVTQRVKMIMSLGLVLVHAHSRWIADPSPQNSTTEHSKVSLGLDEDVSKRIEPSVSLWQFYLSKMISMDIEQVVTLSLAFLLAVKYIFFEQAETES
Procedure: (§1) We thus generated a cell line stably expressing the transmembrane domain of HMGCR fused with green fluorescent protein (GFP) as a reporter (HMGCR (TM1-8)-GFP) (Fig. 2a).
(§2) CHO-7 cells were transfected with pCMV-HMGCR (TM1-8)-GFP using FuGENE HD. Twenty-four hours, cells were switched to medium B supplemented with 5% FBS and selected in the presence of 1 mg ml^−1 G418 for 2 weeks. Surviving colonies were isolated and confirmed for GFP expression by immunoblotting and immunofluorescence. The resulting CHO-7/HMGCR (TM1-8)-GFP stable cell line (CHG) was maintained in medium B supplemented with 5% FBS and 200 μg ml^−1 G418.
(§3) CHG cells were treated as described in figure legends. Briefly, cells were seeded at day 0 in 96-well black plate (3904, Corning) at a density of 1.5 × 10^4 cells per well, in medium B containing with 5% LPDS. Day 1, corresponding compounds were added as figure legends described in medium B with 5% LPDS, 1 μM lovastatin, 50 μM sodium mevalonate for 16 h. Then cells were fixed with 4% paraformaldehyde for 20 min, washed with PBS for three times, and stained with 2 μg ml^−1 Hoechst 33342.
(§4) The fluorescent images (GFP and Hoechst channel) were captured using an Operatta High-Content Imaging System (PerkinElmer) with a ×20 objective. The cytoplasmic GFP fluorescence was measured with the Harmony Software (PerkinElmer). Five random selected filed per well were captured, and about 3000 cells were used to determine the mean cytoplasmic GFP fluorescent intensity per cell after subtracting background GFP intensity. The average GFP intensity of DMSO-treated cells was defined as 100.

[2] = molecular target: T1, HMGCR (TM1-8)-GFP
Procedure: as §1, §2, §3, §4

`CCC(O)CCCCC[C@@H](C)C1CCC2C3C(CC[C@@]21C)[C@@]1(C)CC[C@H](O)C(C)(C)C1=C[C@@H]3O` (stereo partly shown) [Compound 125] gave a remaining activity at 0.156 µM [1] of 83.6%, a remaining activity at 0.313 µM [1] of 77.5% and a remaining activity at 0.625 µM [1] of 65.3%. For the same compound, the remaining activity at 1.25 µM [1] was 50.2%, the remaining activity at 2.5 µM [1] was 41.6% and the remaining activity at 5 µM [1] was 34.7%. It also gave a remaining activity at 10 µM [1] of 33.6% and a DC50 [2] of 1.83 µM.
Work on `C=CCC(O)CCCCC[C@@H](C)C1CCC2C3C(CC[C@@]21C)[C@@]1(C)CC[C@H](O)C(C)(C)C1=C[C@@H]3O` (stereo partly shown) [Compound 126] yielded a remaining activity at 0.156 µM [1] of 76.4%, a remaining activity at 0.313 µM [1] of 72.3% and a remaining activity at 0.625 µM [1] of 58.7%. For the same compound, the remaining activity at 1.25 µM [1] was 50.3%, the remaining activity at 2.5 µM [1] was 44.6% and the remaining activity at 5 µM [1] was 45.5%. The remaining activity at 10 µM [1] was 44.4% and the DC50 [2] was 2.45 µM.
